Measured values: PMC5363373, “Zirconium tetraazamacrocycle complexes display extraordinary stability and provide a new strategy for zirconium-89-based radiopharmaceutical development” (Chemical Science, 2016)

What was measured:
[1] = In vitro EDTA challenge study; assay type: physicochemical
Method: In vitro EDTA challenge study. In vitro EDTA challenge study was carried out by adding 10 µL of each 89Zr-labeled complex (70 μCi, 2.59 MBq) to 500 µL of EDTA (10 mM, 50 mM and 100 mM: pH 5 and pH 7) with a 1:100, 1:500, and 1:1000 ratio of ligand/EDTA. The solutions (n=4) were incubated at 37 °C for 7 days in a thermomixer. Samples were analyzed at 30 min, 1 h, 3 h, 6 h, 1 d, 3 d, 5 d and 7 d post administration to EDTA by radio-TLC using Varian ITLC-SA strips and 0.1 M EDTA (pH 5) as the mobile phase and gamma counting using an energy window of 500-1500 keV and standard protocols .

[2] = In vitro metal competition study; assay type: physicochemical; conditions: PBS pH 7.4, 37 C
Method: In vitro Metal Competition study. To a solution of metal cations [iron (III) chloride, cobalt (II) chloride, zinc (II) chloride, copper (II) chloride, magnesium (II) chloride, gallium (III) nitrate, gadolinium (III) chloride] (1 mM, 200 µL), was added 89Zr-labeled complex (0.1 mM, 10 µL, 80 μCi, 2.96 MBq) in PBS, pH 7.4. The resulting solutions (n = 3) were incubated at 37 °C for 7 days in a thermomixer. Dissociation of 89Zr from 89Zr-complexes was monitored by radio-TLC at 2 h, 1 d, 4 d and 7 d time point. All studies were performed in triplicate.

[3] = In vitro serum stability (radio-ITLC); assay type: in vitro ADME; conditions: 37 C, after 7 days
Method: In vitro serum stability. In vitro serum stability was carried out by adding 10 µL of each 89Zr-labeled complex (70 μCi, 2.59 MBq) to 500 µL of human serum. The solutions (n=4) were incubated at 37 °C for 7 days and were analyzed daily for 1 week by radio -TLC using Varian ITLC-SA strips and 0.1 M EDTA (pH 5) as the mobile phase and gamma counting using an energy window of 500-1500 keV and standard protocols . Serum samples were also analyzed after 7 days by size exclusion chromatography (SEC) using a Superdex 200 10/300 GLTM column (GE Healthcare Life Sciences, Piscataway, NJ) and phosphate buffered saline (PBS) as eluent with a flow rate of 0.5 mL/min.
Figure S30. Radio-ITLC of 89Zr-DOTA solution in human serum at 37 °C after 0 h (a) and 7 days (b). […]

Biodistribution studies = assay type: in vivo, female NIH Swiss mice; conditions: mice, intravenous, 72 h post-injection
Method: Biodistribution Studies. Biodistribution studies were conducted using a modified literature procedure. 7 Briefly, female NIH Swiss mice (6-8 wk old, n=6) were injected with each 89Zr-labeled complex (0.55 MBq (15 μCi)/mouse) via the tail vein, and sacrificed at 2, 4, 24, 48, 72 h post-injection. Organs and tissues of interest were excised, weighted, and counted on a Perkin Elmer 2480 Wizard® gamma counter (Waltham, MA). The percent injected dose per gram (%ID/g) and percent injected dose per organ (%ID/organ) were calculated by comparison to a weighed, counted standard for each group (Tables S9 – S12).
Statistical Methods. All of the data are presented as mean±SD or mean (95% Confidence Interval). For statistical classification a student’s t test (two-tailed, unpaired) was performed using GraphPad Prism (San Diego, CA). Any p<0.05 was considered significant.

% Intact of 89Zr-complexes ([1]; EDTA 100-fold, pH 5.0, 37 C, 1 h): 98.6 ± 0.3%
% Intact of 89Zr-complexes ([1]; EDTA 100-fold, pH 5.0, 37 C, 1 d): 91.8 ± 0.9%
% Intact of 89Zr-complexes ([1]; EDTA 100-fold, pH 5.0, 37 C, 3 d): 84.3 ± 0.7%
% Intact of 89Zr-complexes ([1]; EDTA 100-fold, pH 5.0, 37 C, 5 d): 78.6 ± 1.0%
% Intact of 89Zr-complexes ([1]; EDTA 100-fold, pH 5.0, 37 C, 7 d): 56.5 ± 1.4%
% Intact of 89Zr-complexes ([1]; EDTA 100-fold, pH 7.0, 37 C, 1 h): 99.8 ± 0.1%
% Intact of 89Zr-complexes ([1]; EDTA 100-fold, pH 7.0, 37 C, 1 d): 98.6 ± 0.1%
% Intact of 89Zr-complexes ([1]; EDTA 100-fold, pH 7.0, 37 C, 3 d): 96.8 ± 0.3%
% Intact of 89Zr-complexes ([1]; EDTA 100-fold, pH 7.0, 37 C, 5 d): 94.5 ± 0.5%
% Intact of 89Zr-complexes ([1]; EDTA 100-fold, pH 7.0, 37 C, 7 d): 92.5 ± 0.4%
% Intact of 89Zr-complexes ([1]; EDTA 500-fold, pH 5.0, 37 C, 1 h): 97.4 ± 0.4%
% Intact of 89Zr-complexes ([1]; EDTA 500-fold, pH 5.0, 37 C, 1 d): 89.4 ± 0.7%
% Intact of 89Zr-complexes ([1]; EDTA 500-fold, pH 5.0, 37 C, 3 d): 72.4 ± 1.4%
% Intact of 89Zr-complexes ([1]; EDTA 500-fold, pH 5.0, 37 C, 5 d): 66.7 ± 0.7%
% Intact of 89Zr-complexes ([1]; EDTA 500-fold, pH 5.0, 37 C, 7 d): 53.8 ± 0.8%
% Intact of 89Zr-complexes ([1]; EDTA 500-fold, pH 7.0, 37 C, 1 h): 99.5 ± 0.3%
% Intact of 89Zr-complexes ([1]; EDTA 500-fold, pH 7.0, 37 C, 1 d): 98.2 ± 0.1%
% Intact of 89Zr-complexes ([1]; EDTA 500-fold, pH 7.0, 37 C, 3 d): 94.9 ± 1.1%
% Intact of 89Zr-complexes ([1]; EDTA 500-fold, pH 7.0, 37 C, 5 d): 91.4 ± 0.3%
% Intact of 89Zr-complexes ([1]; EDTA 500-fold, pH 7.0, 37 C, 7 d): 89.3 ± 0.6%
% Intact of 89Zr-complexes ([1]; EDTA 1000-fold, pH 5.0, 37 C, 1 h): 96.3 ± 0.5%
% Intact of 89Zr-complexes ([1]; EDTA 1000-fold, pH 5.0, 37 C, 1 d): 87.3 ± 1.2%
% Intact of 89Zr-complexes ([1]; EDTA 1000-fold, pH 5.0, 37 C, 3 d): 67.5 ± 1.1%
% Intact of 89Zr-complexes ([1]; EDTA 1000-fold, pH 5.0, 37 C, 5 d): 58.9 ± 1.4%
% Intact of 89Zr-complexes ([1]; EDTA 1000-fold, pH 5.0, 37 C, 7 d): 43.7 ± 1.1%
% Intact of 89Zr-complexes ([1]; EDTA 1000-fold, pH 7.0, 37 C, 1 h): 99.2 ± 0.1%
% Intact of 89Zr-complexes ([1]; EDTA 1000-fold, pH 7.0, 37 C, 1 d): 97.9 ± 0.1%
% Intact of 89Zr-complexes ([1]; EDTA 1000-fold, pH 7.0, 37 C, 3 d): 91.5 ± 0.6%
% Intact of 89Zr-complexes ([1]; EDTA 1000-fold, pH 7.0, 37 C, 5 d): 84.9 ± 0.6%
% Intact of 89Zr-complexes ([1]; EDTA 1000-fold, pH 7.0, 37 C, 7 d): 79.4 ± 1.2%
% Intact of 89Zr-complexes ([2]; Co2+, 2 h): 99.1 ± 0.2%
% Intact of 89Zr-complexes ([2]; Co2+, 1 d): 97.2 ± 0.1%
% Intact of 89Zr-complexes ([2]; Co2+, 4 d): 95.3 ± 0.5%
% Intact of 89Zr-complexes ([2]; Co2+, 7 d): 93.5 ± 1.3%
% Intact of 89Zr-complexes ([2]; Cu2+, 2 h): 98.4 ± 0.1%
% Intact of 89Zr-complexes ([2]; Cu2+, 1 d): 95.4 ± 0.2%
% Intact of 89Zr-complexes ([2]; Cu2+, 4 d): 97.5 ± 0.7%
% Intact of 89Zr-complexes ([2]; Cu2+, 7 d): 94.4 ± 1.3%
% Intact of 89Zr-complexes ([2]; Fe3+, 2 h): 99.3 ± 0.1%
% Intact of 89Zr-complexes ([2]; Fe3+, 1 d): 96.8 ± 1.2%
% Intact of 89Zr-complexes ([2]; Fe3+, 4 d): 89.5 ± 0.7%
% Intact of 89Zr-complexes ([2]; Fe3+, 7 d): 84.0 ± 0.4%
% Intact of 89Zr-complexes ([2]; Ga3+, 2 h): 99.2 ± 0.1%
% Intact of 89Zr-complexes ([2]; Ga3+, 1 d): 98.2 ± 0.2%
% Intact of 89Zr-complexes ([2]; Ga3+, 4 d): 93.6 ± 0.6%
% Intact of 89Zr-complexes ([2]; Ga3+, 7 d): 91.1 ± 1.4%
% Intact of 89Zr-complexes ([2]; Gd3+, 2 h): 99.5 ± 0.4%
% Intact of 89Zr-complexes ([2]; Gd3+, 1 d): 97.9 ± 0.4%
% Intact of 89Zr-complexes ([2]; Gd3+, 4 d): 93.2 ± 1.0%
% Intact of 89Zr-complexes ([2]; Gd3+, 7 d): 91.7 ± 2.0%
% Intact of 89Zr-complexes ([2]; Mg2+, 2 h): 99.2 ± 0.2%
% Intact of 89Zr-complexes ([2]; Mg2+, 1 d): 99.4 ± 0.1%
% Intact of 89Zr-complexes ([2]; Mg2+, 4 d): 98.1 ± 0.1%
% Intact of 89Zr-complexes ([2]; Mg2+, 7 d): 96.3 ± 0.4%
% Intact of 89Zr-complexes ([2]; Zn2+, 2 h): 99.0 ± 0.1%
% Intact of 89Zr-complexes ([2]; Zn2+, 1 d): 95.4 ± 0.3%
% Intact of 89Zr-complexes ([2]; Zn2+, 4 d): 89.4 ± 1.5%
% Intact of 89Zr-complexes ([2]; Zn2+, 7 d): 84.7 ± 2.7%
Radio-ITLC peak of complex in human serum [3]: 95.2%
Radioactivity in blood (Biodistribution studies): 0.0005 ± 0.001 % ID per g
Radioactivity in bone (Biodistribution studies): 2.63 ± 0.12 % ID per g
Radioactivity in kidney (Biodistribution studies): 0.32 ± 0.045 % ID per g
Radioactivity in liver (Biodistribution studies): 0.036 ± 0.002 % ID per g
Compound: O=P1(O)CN2CCN3CCN4CCN(CC2)CP(=O)(O)[O][89Zr]([O]1)([O]P(=O)(O)C3)[O]P(=O)(O)C4 [89Zr-DOTP]
